The values below come from BindingDB's records for patent US11161864 (Venenum Biodesign, 2021).

This assay addresses T1, Stimulator of interferon genes protein [154-378] (Mus musculus, UniProt Q3TBT3).
T1 construct: 154-378
T1 sequence (Q3TBT3 whole entry): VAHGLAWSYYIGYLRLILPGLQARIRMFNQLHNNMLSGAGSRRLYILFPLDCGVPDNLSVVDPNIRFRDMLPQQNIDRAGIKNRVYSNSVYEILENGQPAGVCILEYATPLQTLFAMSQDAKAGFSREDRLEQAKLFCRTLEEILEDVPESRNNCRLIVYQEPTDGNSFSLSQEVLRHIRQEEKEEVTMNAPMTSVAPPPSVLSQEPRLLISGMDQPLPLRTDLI
Briefly: Binding Assay.

The IC50 is the concentration that inhibits the measured activity by half. Low values mean higher potency, high ones lower potency. The molecule `NC(=O)c1cnc2c(c1)nc1n2CCOP(=O)(S)OC[C@H]2O[C@@H](n3cnc4c(=O)[nH]c(N)nc43)[C@H](OP(=O)(S)OC1)[C@@H]2F` (stereo partly specified) [US11161864, Example 37A] came in with an IC50 below 1 µM.
